Test results reported in patent US20230021483A1, “[…] […] METHOD AND CLASSIFICATION OF PHARMACEUTICAL COMPONENTS BY USING TRANSCRIPTOMES” (National Institutes of Biomedical Innovation, Health and …, priority 2016, published 2023).

System: adjuvant-associated biological themes in LV, SP, LN
From the text: A defined sets of genes were selected according to specified criteria (e.g., FC, PA-call, threshold values). Their functional enrichment values were then obtained from TargetMine (Chen, Y. A., Tripathi, L. P. & Mizuguchi, K. PloS one 6, e17844 (2011)) (http://targetmine.mizuguchilab.org/) using the API interface. The following resources were used throughout the analysis via TargetMine Interface (GO, GOSlim, Integrated Pathway, KEGG, Reactome, and the NCI pathway). The Holm-Bonferroni method was used for multiple testing corrections.
Whole organ transcriptome data for each organ from each mouse were analyzed as follows to obtain biological themes for individual samples from each adjuvant-administered group of three mice. […] A set of Pj genes was first defined, where eij/ei(c)>2.0. Biological themes enriched within Pj were then identified using TargetMine (Chen, Y. A. et al., PloS one 6, e17844 (2011)) (http://targetmine.mizuguchilab.org/). Tj denote the resulting list of biological themes, with associated p-values from Fischer's exact test.
Next, the biological themes called by all the individual samples in the group were scored as follows. Having obtained three lists (T1, T2 and T3) for a given experimental condition, a consensus list T of themes was created as T={(t1, p1), (t2, p2), . . . }, where ti is a biological theme that appears in all of T1, T2 and T3, and pi is the smallest of the associated p-values. Only the themes with the p-value of <0.05 were included in T.
To summarize the biological themes in T further, a list of terms considered to be associated with adjuvant activity in general was separately prepared. AT={at1, at2, . . . }, where ati is a pre-selected adjuvant-associated term (e.g., “stress” or “cytokine”). Finally, an enrichment score S for an adjuvant-associated term ati was defined as: S(ati)=Σ−log(pj), where the name of tj in T includes a term ati as a substring and pj is the associated p-value.
This scoring scheme summarizes the relative enrichment of pre-selected adjuvant-associated terms in genes responding to each adjuvant in each organ.

Structure (SMILES): CC(O)COC[C@H]1O[C@@H]2O[C@H]3[C@H](O)[C@@H](O)[C@@H](O[C@H]4[C@H](O)[C@@H](O)[C@@H](O[C@H]5[C@H](O)[C@@H](O)[C@@H](O[C@H]6[C@H](O)[C@@H](O)[C@@H](O[C@H]7[C@H](O)[C@@H](O)[C@@H](O[C@H]8[C@H](O)[C@@H](O)[C@@H](O[C@H]1[C@H](O)[C@H]2O)O[C@@H]8COCC(C)O)O[C@@H]7COCC(C)O)O[C@@H]6COCC(C)O)O[C@@H]5COCC(C)O)O[C@@H]4COCC(C)O)O[C@@H]3COCC(C)O (stereo partly drawn) [bCD, Hydroxypropyl-beta-cyclodextrin]
- GO annotation: Cytokine-cytokine receptor interaction (Term: cytokine) (LV, ID): 4.24
- GO annotation: Cytokine-cytokine receptor interaction|Endocytosis (Term: cytokine) (LV, ID): 7.76
- GO annotation: I-kappaB kinase/NF-kappaB signaling (Term: NF-kappa B signaling pathway) (LV, ID): 4.21
- GO annotation: NF-kappa B signaling pathway (Term: NF-kappa B signaling pathway) (LV, ID): 6.86
- GO annotation: TNF signaling pathway (Term: TNF signaling pathway) (LV, ID): 10.6
- GO annotation: activation of immune response (Term: immune response) (LV, ID): 0
- GO annotation: activation of innate immune response (Term: innate immune response) (LV, ID): 0
- GO annotation: acute inflammatory response (Term: inflammatory response) (LV, ID): 0
- GO annotation: adaptive immune response (Term: adaptive immune response) (LV, ID): 0
- GO annotation: apoptotic process (Term: apoptosis) (LV, ID): 0
- GO annotation: apoptotic signaling pathway (Term: apoptosis) (LV, ID): 0
- GO annotation: cell chemotaxis (Term: chemotaxis) (LV, ID): 5.73
- GO annotation: cell death (Term: cell death) (LV, ID): 5.8
- GO annotation: cell migration (Term: migration) (LV, ID): 0
- GO annotation: cellular response to cytokine stimulus (Term: cytokine) (LV, ID): 0
- GO annotation: cellular response to interferon-alpha (Term: IFN alpha) (LV, ID): 0
- GO annotation: cellular response to stress (Term: stress) (LV, ID): 0
- GO annotation: chemokine production (Term: chemokine) (LV, ID): 0
- GO annotation: chemokine-mediated signaling pathway (Term: chemokine) (LV, ID): 0
- GO annotation: chemotaxis (Term: chemotaxis) (LV, ID): 0
- GO annotation: cytokine biosynthetic process (Term: cytokine) (LV, ID): 0
- GO annotation: cytokine metabolic process (Term: cytokine) (LV, ID): 0
- GO annotation: cytokine production (Term: cytokine) (LV, ID): 3.82
- GO annotation: cytokine secretion (Term: cytokine) (LV, ID): 0
- GO annotation: cytokine-mediated signaling pathway (Term: cytokine) (LV, ID): 0
- GO annotation: death (Term: cell death) (LV, ID): 0
- GO annotation: defense response (Term: defense response) (LV, ID): 8.51
- GO annotation: defense response to Gram-positive bacterium (Term: defense response) (LV, ID): 0
- GO annotation: defense response to bacterium (Term: defense response) (LV, ID): 0
- GO annotation: defense response to other organism (Term: defense response) (LV, ID): 0
- GO annotation: defense response to protozoan (Term: defense response) (LV, ID): 0
- GO annotation: defense response to virus (Term: defense response) (LV, ID): 0
- GO annotation: granulocyte chemotaxis (Term: chemotaxis) (LV, ID): 0
- GO annotation: granulocyte migration (Term: migration) (LV, ID): 0
- GO annotation: immune response (Term: immune response) (LV, ID): 0
- GO annotation: immune response-activating signal transduction (Term: immune response) (LV, ID): 0
- GO annotation: immune response-regulating signaling pathway (Term: immune response) (LV, ID): 0
- GO annotation: inflammatory response (Term: inflammatory response) (LV, ID): 10.9
- GO annotation: innate immune response (Term: innate immune response) (LV, ID): 0
- GO annotation: innate immune response-activating signal transduction (Term: innate immune response) (LV, ID): 0
- GO annotation: interferon-alpha production (Term: IFN alpha) (LV, ID): 0
- GO annotation: intrinsic apoptotic signaling pathway (Term: apoptosis) (LV, ID): 0
- GO annotation: leukocyte chemotaxis (Term: chemotaxis) (LV, ID): 0
- GO annotation: leukocyte migration (Term: migration) (LV, ID): 0
- GO annotation: leukocyte migration involved in inflammatory response (Term: inflammatory response) (LV, ID): 0
- GO annotation: lymphocyte chemotaxis (Term: chemotaxis) (LV, ID): 0
- GO annotation: lymphocyte migration (Term: migration) (LV, ID): 0
- GO annotation: myeloid leukocyte migration (Term: migration) (LV, ID): 0
- GO annotation: negative regulation of apoptotic process (Term: apoptosis) (LV, ID): 0
- GO annotation: negative regulation of cell death (Term: cell death) (LV, ID): 0
- GO annotation: negative regulation of cytokine production (Term: cytokine) (LV, ID): 0
- GO annotation: negative regulation of defense response (Term: defense response) (LV, ID): 0
- GO annotation: negative regulation of immune response (Term: immune response) (LV, ID): 0
- GO annotation: negative regulation of innate immune response (Term: innate immune response) (LV, ID): 0
- GO annotation: negative regulation of programmed cell death (Term: cell death) (LV, ID): 0
- GO annotation: neutrophil chemotaxis (Term: chemotaxis) (LV, ID): 0
- GO annotation: neutrophil migration (Term: migration) (LV, ID): 0
- GO annotation: positive regulation of I-kappaB kinase/NF-kappaB signaling (Term: NF-kappa B signaling pathway) (LV, ID): 0
- GO annotation: positive regulation of adaptive immune response (Term: adaptive immune response) (LV, ID): 0
- GO annotation: positive regulation of apoptotic process (Term: apoptosis) (LV, ID): 0
- GO annotation: positive regulation of cell death (Term: cell death) (LV, ID): 0
- GO annotation: positive regulation of cell migration (Term: migration) (LV, ID): 0
- GO annotation: positive regulation of chemokine production (Term: chemokine) (LV, ID): 0
- GO annotation: positive regulation of chemotaxis (Term: chemotaxis) (LV, ID): 0
- GO annotation: positive regulation of cytokine biosynthetic process (Term: cytokine) (LV, ID): 0
- GO annotation: positive regulation of cytokine production (Term: cytokine) (LV, ID): 0
- GO annotation: positive regulation of defense response (Term: defense response) (LV, ID): 0
- GO annotation: positive regulation of immune response (Term: immune response) (LV, ID): 0
- GO annotation: positive regulation of inflammatory response (Term: inflammatory response) (LV, ID): 0
- GO annotation: positive regulation of innate immune response (Term: innate immune response) (LV, ID): 0
- GO annotation: positive regulation of interferon-alpha production (Term: IFN alpha) (LV, ID): 0
- GO annotation: positive regulation of leukocyte chemotaxis (Term: chemotaxis) (LV, ID): 0
- GO annotation: positive regulation of leukocyte migration (Term: migration) (LV, ID): 0
- GO annotation: positive regulation of programmed cell death (Term: cell death) (LV, ID): 0
- GO annotation: positive regulation of response to wounding (Term: wounding) (LV, ID): 0
- GO annotation: positive regulation of tumor necrosis factor superfamily cytokine (Term: cytokine) (LV, ID): 0
- GO annotation: production of molecular mediator of immune response (Term: immune response) (LV, ID): 0
- GO annotation: programmed cell death (Term: cell death) (LV, ID): 0
- GO annotation: regulation of I-kappaB kinase/NF-kappaB signaling (Term: NF-kappa B signaling pathway) (LV, ID): 0
- GO annotation: regulation of adaptive immune response (Term: adaptive immune response) (LV, ID): 0
- GO annotation: regulation of apoptotic process (Term: apoptosis) (LV, ID): 0
- GO annotation: regulation of apoptotic signaling pathway (Term: apoptosis) (LV, ID): 0
- GO annotation: regulation of cell death (Term: cell death) (LV, ID): 0
- GO annotation: regulation of cell migration (Term: migration) (LV, ID): 0
- GO annotation: regulation of chemokine production (Term: chemokine) (LV, ID): 0
- GO annotation: regulation of chemotaxis (Term: chemotaxis) (LV, ID): 0
- GO annotation: regulation of cytokine biosynthetic process (Term: cytokine) (LV, ID): 0
- GO annotation: regulation of cytokine production (Term: cytokine) (LV, ID): 4.06
- GO annotation: regulation of defense response (Term: defense response) (LV, ID): 6.85
- GO annotation: regulation of defense response to virus (Term: defense response) (LV, ID): 0
- GO annotation: regulation of defense response to virus by host (Term: defense response) (LV, ID): 0
- GO annotation: regulation of immune response (Term: immune response) (LV, ID): 0
- GO annotation: regulation of inflammatory response (Term: inflammatory response) (LV, ID): 7.33
- GO annotation: regulation of innate immune response (Term: innate immune response) (LV, ID): 0
- GO annotation: regulation of interferon-alpha production (Term: IFN alpha) (LV, ID): 0
- GO annotation: regulation of intrinsic apoptotic signaling pathway (Term: apoptosis) (LV, ID): 0
- GO annotation: regulation of leukocyte chemotaxis (Term: chemotaxis) (LV, ID): 0
- GO annotation: regulation of leukocyte migration (Term: migration) (LV, ID): 0
- GO annotation: regulation of programmed cell death (Term: cell death) (LV, ID): 0
- GO annotation: regulation of response to stress (Term: stress) (LV, ID): 0
- GO annotation: regulation of response to wounding (Term: wounding) (LV, ID): 6.31
- GO annotation: regulation of tumor necrosis factor superfamily cytokine production (Term: cytokine) (LV, ID): 0
- GO annotation: response to cytokine (Term: cytokine) (LV, ID): 7.77
- GO annotation: response to interferon-alpha (Term: IFN alpha) (LV, ID): 0
- GO annotation: response to stress (Term: stress) (LV, ID): 10.4
- GO annotation: response to wounding (Term: wounding) (LV, ID): 5.85
- GO annotation: taxis (Term: chemotaxis) (LV, ID): 0
- GO annotation: tumor necrosis factor superfamily cytokine production (Term: cytokine) (LV, ID): 0
- IFN beta: cellular response to interferon-beta (LV, ID): 0
- IFN beta: interferon-beta production (LV, ID): 0
- IFN beta: positive regulation of interferon-beta production (LV, ID): 0
- IFN beta: regulation of interferon-beta production (LV, ID): 0
- IFN beta: response to interferon-beta (LV, ID): 0
- IFN gamma: cellular response to interferon-gamma (LV, ID): 0
- IFN gamma: interferon-gamma production (LV, ID): 0
- IFN gamma: regulation of interferon-gamma production (LV, ID): 0
- IFN gamma: response to interferon-gamma (LV, ID): 0
- interleukin-6: interleukin-6 production (LV, ID): 0
- interleukin-6: positive regulation of interleukin-6 production (LV, ID): 0
- interleukin-6: regulation of interleukin-6 production (LV, ID): 0
- interleukin-12: interleukin-12 production (LV, ID): 0
- interleukin-12: positive regulation of interleukin-12 production (LV, ID): 0
- interleukin-12: regulation of interleukin-12 production (LV, ID): 0
- GO annotation: adaptive immune response based on somatic recombination of immune receptors built from immunoglobulin superfamily domains (Term: adaptive immune response) (mouse, in vivo): 0
- GO annotation: regulation of adaptive immune response based on somatic recombination of immune receptors built from immunoglobulin superfamily domains (Term: adaptive immune response) (mouse, in vivo): 0
